Results published in ChEMBL document CHEMBL5696439 (Cancer Res, 2010).
Activity calls are given as the source filed them. No cut-off for these calls is given here.

Key:
[1] = target: cAMP-dependent protein kinase catalytic subunit PRKX (Homo sapiens) (UniProt P51817); assay: Inhibition of recombinant human full length GST-tagged PRKX expressed in insect cells at 2 uM using Ser/Thr 01 as substrate measured after 1 hr by Z'-LYTE assay relative to control; settings: Insect cell
[2] = target: Tyrosine-protein kinase ABL2 (Homo sapiens) (UniProt P42684); assay: Inhibition of recombinant human full-length His-tagged ABL2 expressed in insect cells at 2 uM using Tyr 02 as substrate measured after 1 hr by Z'-LYTE assay relative to control; settings: Insect cell
[3] = test system: LNCaP; assay: Antiproliferative activity against human LNCaP cells assessed as cell growth inhibition at 10 micromol/L incubated for 3 days by MTS assay relative to control; format: functional; settings: 72 h, dose 10 µmol/L, time 3 day
[4] = target: Cyclin-dependent kinase 5/CDK5 activator 1 (Homo sapiens) (UniProt Q00535+Q15078); assay: Inhibition of recombinant human full-length GST/His-tagged CDK5/p35 expressed in insect cells at 2 uM using Ser/Thr 12 as substrate measured after 1 hr by Z'-LYTE assay relative to control; settings: Insect cell
[5] = target: Tyrosine-protein kinase receptor UFO (Homo sapiens) (UniProt P30530); assay: Inhibition of recombinant human His-tagged AXL (473 to end residues) expressed in insect cells at 2 uM using Tyr 06 as substrate measured after 1 hr by Z'-LYTE assay relative to control; settings: Insect cell
[6] = test system: MDA-MB-361; assay: Induction of apoptosis in HER2 hyperactive human MDA-MB-361 cells assessed as massive cell death at 0.001 to 100 micromol/L incubated for 48 hrs by FACS analysis; format: functional, cell-based; settings: dose 0.001-100 µmol/L
[7] = target: Casein kinase I isoform gamma-1 (Homo sapiens) (UniProt Q9HCP0); assay: Inhibition of recombinant human full-length GST-tagged CSNK1G1 expressed in insect cells at 2 uM using Ser/Thr 05 as substrate measured after 1 hr by Z'-LYTE assay relative to control; settings: Insect cell
[8] = target: G protein-coupled receptor kinase 5 (Homo sapiens) (UniProt P34947); assay: Inhibition of recombinant human full-length GST-tagged GRK5 expressed in insect cells at 2 uM using Ser/Thr 16 as substrate measured after 1 hr by Z'-LYTE assay relative to control; settings: Insect cell
[9] = target: Phosphorylase b kinase gamma catalytic chain, skeletal muscle/heart isoform (Homo sapiens) (UniProt Q16816); assay: Inhibition of recombinant human full length GST-tagged PHKG1 expressed in insect cells at 2 uM using Ser/Thr 07 as substrate measured after 1 hr by Z'-LYTE assay relative to control; settings: Insect cell
Sequence of Phosphorylase b kinase gamma catalytic chain, skeletal muscle/heart isoform (Homo sapiens) (Q16816 whole entry, looked up, canonical isoform): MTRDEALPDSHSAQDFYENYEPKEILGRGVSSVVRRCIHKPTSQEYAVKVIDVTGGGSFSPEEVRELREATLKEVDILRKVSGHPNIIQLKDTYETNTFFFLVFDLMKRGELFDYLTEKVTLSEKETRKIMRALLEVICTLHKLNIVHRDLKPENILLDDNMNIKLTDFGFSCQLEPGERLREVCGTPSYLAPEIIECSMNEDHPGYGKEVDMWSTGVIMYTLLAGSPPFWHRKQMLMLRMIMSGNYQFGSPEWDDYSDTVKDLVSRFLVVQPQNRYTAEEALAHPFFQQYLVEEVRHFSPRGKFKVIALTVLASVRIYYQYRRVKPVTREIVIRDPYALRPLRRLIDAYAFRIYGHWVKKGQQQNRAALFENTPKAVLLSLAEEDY

[10] = test system: A498; assay: Antiproliferative activity against human A498 cells assessed as cell growth inhibition incubated for 24 hrs by MTS assay; format: functional, cell-based; settings: A498, 24 h
[11] = test system: MDA-MB-361; assay: Induction of apoptosis in human MDA-MB-361 cells assessed as induction in cell death at 30 nmol/L incubated for 48 hrs by FACS analysis relative to control; format: functional
[12] = target: Serine/threonine-protein kinase SMG1 (Homo sapiens, UniProt Q96Q15); assay: Inhibition of human SMG1 using glutathione S-transferase-p53 as substrate by DELFIA
Sequence of Serine/threonine-protein kinase SMG1 (Q96Q15 whole entry, the tested form may be a part): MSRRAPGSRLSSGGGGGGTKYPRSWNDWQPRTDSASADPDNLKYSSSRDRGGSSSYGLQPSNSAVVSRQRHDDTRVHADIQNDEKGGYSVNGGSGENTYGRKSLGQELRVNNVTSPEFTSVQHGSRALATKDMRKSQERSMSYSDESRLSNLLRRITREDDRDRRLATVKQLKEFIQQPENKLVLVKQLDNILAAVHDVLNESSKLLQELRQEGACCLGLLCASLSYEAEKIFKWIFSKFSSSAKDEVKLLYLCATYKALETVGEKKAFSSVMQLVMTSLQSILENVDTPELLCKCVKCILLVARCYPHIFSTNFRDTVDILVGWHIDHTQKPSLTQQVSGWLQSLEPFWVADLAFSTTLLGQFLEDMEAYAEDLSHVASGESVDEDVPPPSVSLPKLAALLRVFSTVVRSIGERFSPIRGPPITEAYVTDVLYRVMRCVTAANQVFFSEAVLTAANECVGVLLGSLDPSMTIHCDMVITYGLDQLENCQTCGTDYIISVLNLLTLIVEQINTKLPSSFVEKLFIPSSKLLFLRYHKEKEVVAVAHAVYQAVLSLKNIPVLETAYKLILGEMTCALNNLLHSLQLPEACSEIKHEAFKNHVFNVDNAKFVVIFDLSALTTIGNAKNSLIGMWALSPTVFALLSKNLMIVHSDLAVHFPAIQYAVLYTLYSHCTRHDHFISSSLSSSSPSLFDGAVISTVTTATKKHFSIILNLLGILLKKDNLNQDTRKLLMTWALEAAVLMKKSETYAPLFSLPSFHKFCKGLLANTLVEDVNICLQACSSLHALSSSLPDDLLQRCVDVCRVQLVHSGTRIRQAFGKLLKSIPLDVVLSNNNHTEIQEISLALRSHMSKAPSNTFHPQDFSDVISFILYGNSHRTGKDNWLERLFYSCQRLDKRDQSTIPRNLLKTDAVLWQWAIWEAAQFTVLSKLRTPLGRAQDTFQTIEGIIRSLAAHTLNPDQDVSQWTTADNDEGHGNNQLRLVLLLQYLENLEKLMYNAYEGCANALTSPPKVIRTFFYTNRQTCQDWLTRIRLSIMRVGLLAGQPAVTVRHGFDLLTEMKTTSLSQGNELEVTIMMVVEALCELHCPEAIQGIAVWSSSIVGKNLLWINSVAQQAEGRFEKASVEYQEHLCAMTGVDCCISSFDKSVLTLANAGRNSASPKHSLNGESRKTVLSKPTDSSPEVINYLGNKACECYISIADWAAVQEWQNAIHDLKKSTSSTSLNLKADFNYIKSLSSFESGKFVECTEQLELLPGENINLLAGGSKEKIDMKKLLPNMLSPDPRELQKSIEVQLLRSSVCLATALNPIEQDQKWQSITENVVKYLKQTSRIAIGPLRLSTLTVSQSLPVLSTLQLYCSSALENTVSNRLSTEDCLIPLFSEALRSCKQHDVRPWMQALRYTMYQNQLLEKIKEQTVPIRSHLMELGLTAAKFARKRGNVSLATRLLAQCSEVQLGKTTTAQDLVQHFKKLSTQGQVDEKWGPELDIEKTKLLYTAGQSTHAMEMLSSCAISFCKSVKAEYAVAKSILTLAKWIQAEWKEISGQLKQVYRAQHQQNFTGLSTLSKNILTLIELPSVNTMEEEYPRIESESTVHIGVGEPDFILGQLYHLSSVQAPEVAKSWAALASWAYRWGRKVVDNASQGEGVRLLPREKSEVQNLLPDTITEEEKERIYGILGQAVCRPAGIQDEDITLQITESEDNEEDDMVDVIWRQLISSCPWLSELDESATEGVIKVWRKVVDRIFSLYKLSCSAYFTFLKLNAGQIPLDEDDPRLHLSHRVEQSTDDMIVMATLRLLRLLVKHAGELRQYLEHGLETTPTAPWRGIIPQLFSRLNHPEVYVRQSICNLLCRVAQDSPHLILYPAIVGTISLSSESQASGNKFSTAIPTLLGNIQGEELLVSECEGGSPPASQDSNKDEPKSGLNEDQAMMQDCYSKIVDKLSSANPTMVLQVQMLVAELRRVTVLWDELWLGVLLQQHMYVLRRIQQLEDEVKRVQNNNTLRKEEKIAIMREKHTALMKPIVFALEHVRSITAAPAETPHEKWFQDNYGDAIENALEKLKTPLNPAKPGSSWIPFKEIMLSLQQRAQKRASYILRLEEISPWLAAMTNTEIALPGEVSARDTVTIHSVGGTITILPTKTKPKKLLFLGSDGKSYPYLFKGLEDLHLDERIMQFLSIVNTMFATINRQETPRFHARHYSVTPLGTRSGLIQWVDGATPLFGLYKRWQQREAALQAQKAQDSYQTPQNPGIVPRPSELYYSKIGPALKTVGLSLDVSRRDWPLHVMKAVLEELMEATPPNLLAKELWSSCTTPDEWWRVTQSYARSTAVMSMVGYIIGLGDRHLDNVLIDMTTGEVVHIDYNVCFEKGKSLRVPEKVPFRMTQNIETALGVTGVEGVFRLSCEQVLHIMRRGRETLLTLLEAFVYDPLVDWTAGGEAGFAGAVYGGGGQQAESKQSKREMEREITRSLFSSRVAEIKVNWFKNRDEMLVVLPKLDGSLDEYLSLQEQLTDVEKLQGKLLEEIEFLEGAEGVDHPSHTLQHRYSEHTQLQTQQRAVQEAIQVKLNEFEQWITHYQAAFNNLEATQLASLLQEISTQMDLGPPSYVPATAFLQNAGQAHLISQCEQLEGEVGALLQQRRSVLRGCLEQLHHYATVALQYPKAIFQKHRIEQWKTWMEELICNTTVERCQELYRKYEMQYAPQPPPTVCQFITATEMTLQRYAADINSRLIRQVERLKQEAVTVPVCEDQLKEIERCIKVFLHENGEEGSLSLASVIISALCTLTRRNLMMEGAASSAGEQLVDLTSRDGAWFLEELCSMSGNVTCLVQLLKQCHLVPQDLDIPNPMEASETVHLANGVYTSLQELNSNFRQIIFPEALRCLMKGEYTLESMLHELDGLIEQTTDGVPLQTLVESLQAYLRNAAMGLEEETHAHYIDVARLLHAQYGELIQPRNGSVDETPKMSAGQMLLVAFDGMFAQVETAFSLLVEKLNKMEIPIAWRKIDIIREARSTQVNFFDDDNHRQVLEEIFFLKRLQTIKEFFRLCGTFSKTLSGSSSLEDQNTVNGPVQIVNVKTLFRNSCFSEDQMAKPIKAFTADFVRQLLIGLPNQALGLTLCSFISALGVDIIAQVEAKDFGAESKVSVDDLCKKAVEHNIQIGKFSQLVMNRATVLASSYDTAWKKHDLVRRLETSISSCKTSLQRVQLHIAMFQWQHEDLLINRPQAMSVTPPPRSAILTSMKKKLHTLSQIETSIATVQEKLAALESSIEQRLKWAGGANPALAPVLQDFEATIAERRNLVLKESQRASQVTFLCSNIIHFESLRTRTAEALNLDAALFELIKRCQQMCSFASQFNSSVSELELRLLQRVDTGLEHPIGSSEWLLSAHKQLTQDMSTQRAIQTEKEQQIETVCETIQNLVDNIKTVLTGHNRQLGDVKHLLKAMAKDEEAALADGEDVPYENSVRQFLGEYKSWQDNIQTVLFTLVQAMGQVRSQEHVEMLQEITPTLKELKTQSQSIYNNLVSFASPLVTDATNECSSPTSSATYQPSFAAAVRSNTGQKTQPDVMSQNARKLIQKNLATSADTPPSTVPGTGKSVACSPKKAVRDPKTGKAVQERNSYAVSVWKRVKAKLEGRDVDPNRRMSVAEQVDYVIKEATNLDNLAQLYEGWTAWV

[13] = target: Ephrin type-A receptor 4 (Homo sapiens) (UniProt P54764); assay: Inhibition of recombinant human GST-tagged EPHA4 (616-887 residues) expressed in insect cells at 2 uM using Tyr 02 as substrate measured after 1 hr by Z'-LYTE assay relative to control; settings: Insect cell
Sequence of Ephrin type-A receptor 4 (Homo sapiens) (P54764 whole entry, the tested form may be a part): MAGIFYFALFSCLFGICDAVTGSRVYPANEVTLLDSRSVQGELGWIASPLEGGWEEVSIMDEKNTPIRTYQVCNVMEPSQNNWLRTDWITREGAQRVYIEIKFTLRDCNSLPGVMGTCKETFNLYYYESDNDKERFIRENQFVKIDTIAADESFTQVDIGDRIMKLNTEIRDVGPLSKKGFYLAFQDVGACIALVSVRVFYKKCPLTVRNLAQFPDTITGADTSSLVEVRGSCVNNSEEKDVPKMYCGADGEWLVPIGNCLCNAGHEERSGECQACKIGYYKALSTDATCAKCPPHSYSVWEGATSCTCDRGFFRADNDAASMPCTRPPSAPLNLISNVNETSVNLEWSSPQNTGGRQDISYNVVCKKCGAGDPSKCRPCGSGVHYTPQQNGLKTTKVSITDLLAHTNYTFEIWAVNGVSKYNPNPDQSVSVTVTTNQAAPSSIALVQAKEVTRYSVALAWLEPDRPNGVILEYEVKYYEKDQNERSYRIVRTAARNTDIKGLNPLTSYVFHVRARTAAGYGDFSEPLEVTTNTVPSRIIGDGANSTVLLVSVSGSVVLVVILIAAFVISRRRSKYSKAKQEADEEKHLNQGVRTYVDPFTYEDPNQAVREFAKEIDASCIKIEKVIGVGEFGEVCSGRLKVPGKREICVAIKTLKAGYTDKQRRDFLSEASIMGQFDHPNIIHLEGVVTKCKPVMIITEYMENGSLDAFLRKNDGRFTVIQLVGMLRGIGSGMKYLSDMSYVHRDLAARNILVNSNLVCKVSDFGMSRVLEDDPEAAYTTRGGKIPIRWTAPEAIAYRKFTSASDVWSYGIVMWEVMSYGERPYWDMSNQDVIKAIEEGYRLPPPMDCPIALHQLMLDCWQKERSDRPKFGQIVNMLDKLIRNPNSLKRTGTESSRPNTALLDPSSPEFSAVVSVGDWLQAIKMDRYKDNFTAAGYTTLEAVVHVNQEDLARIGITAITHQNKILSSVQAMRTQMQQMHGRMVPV

[14] = test system: PC3MM2; assay: Induction of apoptosis in human PC3MM2 cells assessed as increase in G1 phase at 1 micromol/L incubated for 24 hrs by FACS analysis; format: functional, cell-based; settings: dose 1.0 µmol/L
[15] = target: Mitogen-activated protein kinase 3 (Homo sapiens) (UniProt P27361); assay: Inhibition of recombinant human full length GST-tagged MAPK3 expressed in E. coli at 2 uM using Ser/Thr 03 as substrate measured after 1 hr by Z'-LYTE assay relative to control
[16] = test system: A549; assay: Antitumor activity against human A549 cells xenografted in female nude mouse model assessed as suppression in tumor growth at 50 mg/kg, po qd administered as 5 days on/2 days off regimen for 4 cycles relative to control; format: functional; settings: time 28 day
[17] = target: SRSF protein kinase 3 (Homo sapiens) (UniProt Q9UPE1); assay: Inhibition of recombinant human full length GST-tagged STK23 expressed in baculovirus expression system at 2 uM using Ser/Thr 18 as substrate measured after 1 hr by Z'-LYTE assay relative to control
[18] = test system: NCI-H460; assay: Antiproliferative activity against human NCI-H460 cells assessed as cell growth inhibition incubated for 24 hrs by MTS assay; format: functional, cell-based; settings: NCI-H460, 24 h
[19] = target: Serine/threonine-protein kinase TAO2 (Homo sapiens) (UniProt Q9UL54); assay: Inhibition of recombinant human GST-tagged TAOK2 (1-314 residues) expressed in insect cells at 2 uM using Ser/Thr 07 as substrate measured after 1 hr by Z'-LYTE assay relative to control; settings: Insect cell
[20] = target: Mitogen-activated protein kinase 11 (Homo sapiens) (UniProt Q15759); assay: Inhibition of recombinant human full length His-tagged MAPK11 expressed in insect cells at 2 uM using Ser/Thr 15 as substrate measured after 1 hr by Z'-LYTE assay relative to control; settings: Insect cell
[21] = test system: MDA-MB-361; assay: Antitumor activity against human MDA-MB-361 cells xenografted in female nude mouse model assessed as suppression in P-S6K at T389 level at 50 mg/kg, iv administered once a week and measured at least 8 hrs by immunoblot analysis; format: functional, organism-based
[22] = target: Tyrosine-protein kinase JAK2 (Homo sapiens) (UniProt O60674); assay: Inhibition of recombinant human GST-tagged JAK2 (809-1153 +9 residues) expressed in insect cells at 2 uM using Tyr 06 as substrate measured after 1 hr by Z'-LYTE assay relative to control; settings: Insect cell
[23] = test system: HCT-116; assay: Induction of apoptosis in human HCT-116 cells assessed as reduction in S phase at 1 micromol/L incubated for 24 hrs by FACS analysis; format: functional, cell-based; settings: dose 1.0 µmol/L
[24] = test system: MDA-MB-361; assay: Inhibition of protein synthesis in human MDA-MB-361 cells at 1 micromol/L incubated for 3 hrs by [3H] methionine incorporation based scintillation counter analysis relative to control; format: functional; settings: MDA-MB-361, 3 h, dose 1 µmol/L
[25] = test system: U-87 MG; assay: Antitumor activity against human U-87MG cells assessed as reduction in lactate production at 1 micromol/L incubated for 24 hrs relative to control; format: functional, U-87MG ATCC; set-up: scale not given: the % may be the effect or the level left; settings: dose 1 µmol/L, at 1 µM
[26] = test system: A549; assay: Induction of apoptosis in human A549 cells assessed as reduction in S phase at 1 micromol/L incubated for 24 hrs by FACS analysis; format: functional, cell-based; settings: dose 1.0 µmol/L
[27] = test system: HeLa; assay: Antiproliferative activity against human HeLa cells assessed as cell growth inhibition incubated for 24 hrs by MTS assay; format: functional, cell-based
[28] = target: Macrophage-stimulating protein receptor (Homo sapiens) (UniProt Q04912); assay: Inhibition of recombinant human GST-tagged MST1R (983-1400 residues) expressed in insect cells at 2 uM using Tyr 06 as substrate measured after 1 hr by Z'-LYTE assay relative to control; settings: Insect cell

Question: Which results are given for `CNC(=O)Nc1ccc(-c2nc(N3CC4CCC(C3)O4)c3cnn(C4CCC5(CC4)OCCO5)c3n2)cc1`?
Answer: inhibition [1]: 5%; inhibition [2]: 13%; inhibition at 10 µM [3]: 100%; inhibition [4]: -4%; inhibition [5]: 2%; Activity [6]: Active; inhibition [7]: -2%; inhibition [8]: -4%; inhibition [9]: 7%; IC50 [10]: 110 nM; Activity [11]: 13%; IC50 [12]: 1250 nM; inhibition [13]: -1%; Activity [14]: Active; inhibition [15]: 1%; Activity [16]: 100%; inhibition [17]: 6%; IC50 [18]: 300 nM; inhibition [19]: 3%; inhibition [20]: 2%; Activity [21]: Active; inhibition [22]: -3%; Activity [23]: Active; inhibition at 1 µM [24]: ~50%; Activity [25]: 48%; Activity [26]: Active; IC50 [27]: 55 nM; inhibition [28]: -1%
